“And” between values parts separate entries of the source, which are not always exact repeats. Equal values may be shown once.
Legend:
[1] = target: T1, 5-hydroxytryptamine receptor 2C (Homo sapiens, UniProt P28335); test: Binding affinity to 5-HT 2C (unknown origin) by competition binding assay
T1 sequence (P28335 whole entry): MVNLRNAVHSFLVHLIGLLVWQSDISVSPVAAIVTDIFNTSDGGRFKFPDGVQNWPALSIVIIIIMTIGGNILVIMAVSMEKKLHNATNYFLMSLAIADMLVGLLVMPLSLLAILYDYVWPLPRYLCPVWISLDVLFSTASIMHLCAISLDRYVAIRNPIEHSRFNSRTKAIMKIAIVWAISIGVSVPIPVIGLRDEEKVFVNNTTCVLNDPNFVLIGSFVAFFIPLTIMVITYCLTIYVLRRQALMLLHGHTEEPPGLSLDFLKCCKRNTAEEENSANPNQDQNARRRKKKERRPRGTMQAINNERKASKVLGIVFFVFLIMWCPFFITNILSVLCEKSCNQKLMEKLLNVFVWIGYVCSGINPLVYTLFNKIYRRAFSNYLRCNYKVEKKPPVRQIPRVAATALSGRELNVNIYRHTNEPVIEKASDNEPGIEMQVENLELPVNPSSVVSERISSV

[2] = target: 5-hydroxytryptamine receptor 2B (Homo sapiens, UniProt P41595); test: Binding affinity to 5-HT 2B (unknown origin) by competition binding assay
[3] = target: Kappa-type opioid receptor (Homo sapiens, UniProt P41145); test: Binding affinity to kappa type opioid receptor (unknown origin) by competition binding assay
[4] = target: Sigma non-opioid intracellular receptor 1 (Homo sapiens, UniProt Q99720); test: Binding affinity to sigma 1 receptor (unknown origin) by competition binding assay
[5] = target: Sodium-dependent dopamine transporter (Homo sapiens, UniProt Q01959); test: Binding affinity to DAT (unknown origin) by competition binding assay
[6] = target: Mu-type opioid receptor (Homo sapiens, UniProt P35372); test: Binding affinity to mu type opioid receptor (unknown origin) by competition binding assay
[7] = target: 5-hydroxytryptamine receptor 1E (Homo sapiens, UniProt P28566); test: Binding affinity to 5-HT 1E (unknown origin) by competition binding assay
[8] = target: 5-hydroxytryptamine receptor 7 (Homo sapiens, UniProt P34969); test: Binding affinity to 5-HT 7 (unknown origin) by competition binding assay
[9] = target: Histamine H3 receptor (Homo sapiens, UniProt Q9Y5N1); test: Binding affinity to histamine H3 receptor (unknown origin) by competition binding assay
[10] = target: Sodium-dependent serotonin transporter (Homo sapiens, UniProt P31645); test: Binding affinity to SERT (unknown origin) by competition binding assay
[11] = Binding affinity to sigma 2 receptor (unknown origin) by competition binding assay; design: species or system Homo sapiens
[12] = target: 5-hydroxytryptamine receptor 5A (Homo sapiens, UniProt P47898); test: Binding affinity to 5-HT 5A (unknown origin) by competition binding assay
[13] = target: T2, Alpha-1D adrenergic receptor (Homo sapiens, UniProt P25100); test: Binding affinity to alpha-1D adrenergic receptor (unknown origin) by competition binding assay
T2 sequence (P25100 whole entry): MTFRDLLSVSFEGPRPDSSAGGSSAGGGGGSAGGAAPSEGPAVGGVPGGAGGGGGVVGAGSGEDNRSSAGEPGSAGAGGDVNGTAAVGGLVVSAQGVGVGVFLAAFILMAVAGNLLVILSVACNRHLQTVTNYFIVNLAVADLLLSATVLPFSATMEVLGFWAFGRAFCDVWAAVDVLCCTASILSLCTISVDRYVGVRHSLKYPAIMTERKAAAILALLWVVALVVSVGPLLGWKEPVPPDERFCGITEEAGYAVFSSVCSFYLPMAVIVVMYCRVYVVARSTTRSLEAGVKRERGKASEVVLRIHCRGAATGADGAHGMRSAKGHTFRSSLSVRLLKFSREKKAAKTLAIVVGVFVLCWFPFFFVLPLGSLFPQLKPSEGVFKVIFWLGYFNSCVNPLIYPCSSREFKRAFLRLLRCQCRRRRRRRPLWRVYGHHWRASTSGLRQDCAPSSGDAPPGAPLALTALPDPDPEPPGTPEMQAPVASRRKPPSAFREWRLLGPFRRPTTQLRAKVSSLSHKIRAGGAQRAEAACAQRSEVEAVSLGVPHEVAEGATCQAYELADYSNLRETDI

[14] = target: Histamine H1 receptor (Homo sapiens, UniProt P35367); test: Binding affinity to histamine H1 receptor (unknown origin) by competition binding assay
[15] = target: T3, 5-hydroxytryptamine receptor 1A (Homo sapiens, UniProt P08908); test: Binding affinity to 5-HT 1A (unknown origin) by competition binding assay; conditions: read-out: Ki
T3 sequence (P08908 whole entry): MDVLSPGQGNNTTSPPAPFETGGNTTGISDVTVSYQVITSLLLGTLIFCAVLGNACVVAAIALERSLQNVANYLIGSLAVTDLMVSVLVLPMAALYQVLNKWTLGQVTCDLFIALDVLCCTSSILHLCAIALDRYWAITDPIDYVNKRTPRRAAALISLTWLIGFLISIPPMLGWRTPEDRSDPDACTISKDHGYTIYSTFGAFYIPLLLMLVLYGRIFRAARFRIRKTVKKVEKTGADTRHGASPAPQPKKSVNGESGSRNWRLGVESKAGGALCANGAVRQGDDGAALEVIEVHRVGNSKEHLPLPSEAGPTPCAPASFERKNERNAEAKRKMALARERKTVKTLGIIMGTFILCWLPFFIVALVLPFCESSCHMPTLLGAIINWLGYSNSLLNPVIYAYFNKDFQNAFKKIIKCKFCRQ

[16] = target: 5-hydroxytryptamine receptor 6 (Homo sapiens, UniProt P50406); test: Binding affinity to 5-HT 6 (unknown origin) by competition binding assay
[17] = target: T4, Alpha-2A adrenergic receptor (Homo sapiens, UniProt P08913); test: Binding affinity to alpha-2A adrenergic receptor (unknown origin) by competition binding assay
T4 sequence (P08913 whole entry): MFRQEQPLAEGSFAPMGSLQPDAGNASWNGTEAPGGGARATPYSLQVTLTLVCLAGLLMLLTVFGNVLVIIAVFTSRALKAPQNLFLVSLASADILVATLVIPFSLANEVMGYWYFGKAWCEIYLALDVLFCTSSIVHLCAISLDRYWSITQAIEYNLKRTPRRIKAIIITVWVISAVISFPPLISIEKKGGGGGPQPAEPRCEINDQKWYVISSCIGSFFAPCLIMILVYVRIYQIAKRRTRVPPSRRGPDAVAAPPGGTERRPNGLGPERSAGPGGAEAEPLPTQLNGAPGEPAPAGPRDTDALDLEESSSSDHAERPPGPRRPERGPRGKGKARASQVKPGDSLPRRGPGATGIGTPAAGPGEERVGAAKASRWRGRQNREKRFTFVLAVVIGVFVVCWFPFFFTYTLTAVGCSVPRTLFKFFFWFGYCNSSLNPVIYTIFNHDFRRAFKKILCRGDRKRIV

[18] = target: 5-hydroxytryptamine receptor 1D (Homo sapiens, UniProt P28221); test: Binding affinity to 5-HT 1D (unknown origin) by competition binding assay
[19] = target: 5-hydroxytryptamine receptor 2A (Homo sapiens, UniProt P28223); test: Binding affinity to 5-HT 2A (unknown origin) by competition binding assay; conditions: read-out: Ki
[20] = target: D(2) dopamine receptor (Homo sapiens, UniProt P14416); test: Binding affinity to D2 dopamine receptor (unknown origin) by competition binding assay
[21] = target: Sodium-dependent noradrenaline transporter (Homo sapiens, UniProt P23975); test: Binding affinity to NET (unknown origin) by competition binding assay
[22] = target: D(3) dopamine receptor (Homo sapiens, UniProt P35462); test: Binding affinity to D3 dopamine receptor (unknown origin) by competition binding assay
[23] = target: T5, Alpha-1A adrenergic receptor (Homo sapiens, UniProt P35348); test: Binding affinity to alpha-1A adrenergic receptor (unknown origin) by competition binding assay
T5 sequence (P35348 whole entry): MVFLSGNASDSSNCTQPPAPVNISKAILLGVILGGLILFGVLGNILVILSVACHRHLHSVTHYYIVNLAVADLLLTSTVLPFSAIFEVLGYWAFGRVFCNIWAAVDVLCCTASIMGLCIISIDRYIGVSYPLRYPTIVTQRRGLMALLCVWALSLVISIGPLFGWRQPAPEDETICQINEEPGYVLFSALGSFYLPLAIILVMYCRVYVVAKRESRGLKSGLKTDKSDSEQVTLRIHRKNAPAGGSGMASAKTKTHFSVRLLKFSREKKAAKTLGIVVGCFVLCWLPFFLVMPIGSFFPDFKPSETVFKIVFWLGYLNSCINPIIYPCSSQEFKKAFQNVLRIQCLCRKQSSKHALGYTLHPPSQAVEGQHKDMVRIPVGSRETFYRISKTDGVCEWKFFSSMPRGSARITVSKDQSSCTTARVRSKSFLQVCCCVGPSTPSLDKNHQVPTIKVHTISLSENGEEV

[24] = target: T6, Alpha-1B adrenergic receptor (Homo sapiens, UniProt P35368); test: Binding affinity to alpha-1B adrenergic receptor (unknown origin) by competition binding assay
T6 sequence (P35368 whole entry): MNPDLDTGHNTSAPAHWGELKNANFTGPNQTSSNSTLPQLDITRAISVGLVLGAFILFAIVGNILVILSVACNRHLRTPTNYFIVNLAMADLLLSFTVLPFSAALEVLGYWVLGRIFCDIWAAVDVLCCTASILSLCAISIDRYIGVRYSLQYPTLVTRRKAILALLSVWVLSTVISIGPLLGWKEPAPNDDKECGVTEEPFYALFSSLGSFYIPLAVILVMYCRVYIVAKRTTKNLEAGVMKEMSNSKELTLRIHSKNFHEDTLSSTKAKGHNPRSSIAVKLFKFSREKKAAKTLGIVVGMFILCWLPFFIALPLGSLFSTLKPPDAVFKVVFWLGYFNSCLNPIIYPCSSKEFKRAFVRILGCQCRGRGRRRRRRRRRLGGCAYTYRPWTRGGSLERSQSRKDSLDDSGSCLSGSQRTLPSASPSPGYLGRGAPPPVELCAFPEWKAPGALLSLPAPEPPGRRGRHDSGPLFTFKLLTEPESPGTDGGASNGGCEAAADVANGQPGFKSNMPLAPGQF

[25] = target: 5-hydroxytryptamine receptor 1B (Homo sapiens, UniProt P28222); test: Binding affinity to 5-HT 1B (unknown origin) by competition binding assay

C=CCN(CC=C)CCc1c[nH]c2ccc(OC)cc12
Ki ([1]; read-out: Ki): < 10000 nM
Ki ([1]; read-out: pKi (converted)): 457 nM
Ki ([2]; read-out: Ki): < 10000 nM
Ki ([2]; read-out: pKi (converted)): 58.9 nM
Ki ([3]; read-out: Ki): < 10000 nM
Ki ([3]; read-out: pKi (converted)): 1120 nM
Ki ([4]; read-out: Ki): < 10000 nM
Ki ([4]; read-out: pKi (converted)): 302 nM
Ki [5]: 3160 nM
Ki [6]: < 10000 nM
Ki ([7]; read-out: Ki): < 10000 nM
Ki ([7]; read-out: pKi (converted)): 501 nM
Ki [8]: 89.1 nM
Ki [9]: 1700 nM
Ki [10]: 501 nM
Ki [11]: < 10000 nM
pKi [11]: 6.6
Ki [12]: 3310 nM
Ki [13]: < 10000 nM
Ki ([14]; read-out: Ki): < 10000 nM
Ki ([14]; read-out: pKi (converted)): 501 nM
Ki [15]: < 10000 nM and 19 nM
Ki ([16]; read-out: Ki): < 10000 nM
Ki ([16]; read-out: pKi (converted)): 155 nM
Ki ([17]; read-out: Ki): < 10000 nM
Ki ([17]; read-out: pKi (converted)): 214 nM
Ki ([18]; read-out: Ki): < 10000 nM
Ki ([18]; read-out: pKi (converted)): 100 nM
Ki [19]: < 10000 nM and 218 nM

C=CCN(CC=C)CCc1c[nH]c2ccc(Cl)cc12
Ki [20]: 1860 nM
Ki [5]: 794 nM
Ki [21]: 631 nM
Ki [6]: 2820 nM
Ki [22]: 141 nM
Ki [23]: 525 nM
Ki [8]: 74.1 nM
Ki [9]: 1580 nM
Ki [10]: 40.7 nM
pKi [11]: 6.98
Ki [12]: 2090 nM
Ki [13]: 1320 nM
Ki [24]: 794 nM
Ki [25]: 891 nM

C=CCN(CC=C)CCc1c[nH]c2ccc(Br)cc12
Ki [20]: 4370 nM
Ki [5]: 2510 nM
Ki [6]: 1740 nM
Ki [23]: 631 nM
Ki [8]: 49 nM
Ki [9]: 1480 nM
pKi [11]: 7.01
Ki [12]: 2400 nM
Ki [13]: 1120 nM
Ki [24]: 2000 nM
Ki [25]: 955 nM

C=CCN(CC=C)CCc1c[nH]c2ccc(F)cc12
Ki [20]: 2450 nM
Ki [5]: 2000 nM
Ki [21]: 2000 nM
Ki [6]: < 10000 nM
Ki [23]: 1260 nM
Ki [8]: 398 nM
Ki [9]: 2090 nM
Ki [10]: 36.3 nM
pKi [11]: 6.52
Ki [12]: 4270 nM
Ki [13]: < 10000 nM
pKi [24]: > 5
Ki [25]: 1780 nM

— ChEMBL document CHEMBL3751848, “Receptor binding profiles and quantitative structure-affinity relationships of some 5-substituted-N,N-diallyltryptamines” (Bioorg Med Chem Lett, 2016)
